Source: patent US9101628B2, “Methods and composition of treating a flaviviridae family viral infection” (The Board of Trustees of the Leland Stanford Junior …, priority 2007, dated 2015)

Test system: HCV RNA replication
Assay: RNA replication inhibition assay (luciferase reporter-linked HCV genome)
Details: Hepatitis C virus, percentage of untreated control population; for activity at 5 µM: read-out: Residual Luciferase activity, 5 micromolar; for activity at 10 µM: read-out: Residual Luciferase activity, 10 micromolar

For `Cc1cc2ncn(Cc3ccc(Cl)cc3)c2cc1Cl` [Compound 65], the activity at 5 µM was < 80% and the activity at 10 µM was < 55%.
With `Cc1cc2c(ncn2Cc2ccc(Cl)cc2)c([N+](=O)[O-])c1C` [Compound 66] the activity at 5 µM was < 80% and the activity at 10 µM was < 55%.
`Cc1cc2c(ncn2Cc2ccc(Cl)cc2)c(N)c1C` [Compound 67] was tested, and the activity at 5 µM was < 80% and the activity at 10 µM was < 80%.
`CC(=O)Nc1c(C)c(C)cc2c1ncn2Cc1ccc(Cl)cc1` [Compound 68] was tested, and the activity at 5 µM was > 80% and the activity at 10 µM was > 80%.
In the case of `Cc1cc2c(ncn2Cc2ccc(Cl)cc2)c(NC(=O)C(C)C)c1C` [Compound 69], the activity at 5 µM was > 80% and the activity at 10 µM was < 80%.
`Cc1cc2c(ncn2Cc2ccc(Cl)cc2)c(NC(=O)C(F)(F)F)c1C` [Compound 70] was tested, and the activity at 5 µM was > 80% and the activity at 10 µM was > 80%.
For `Cc1cc2c(ncn2Cc2ccc(Cl)cc2)c(NC(=O)c2ccccc2)c1C` [Compound 71], the activity at 5 µM was > 80% and the activity at 10 µM was > 80%.
With `CCCCNC(=O)Nc1c(C)c(C)cc2c1ncn2Cc1ccc(Cl)cc1` [Compound 72] the activity at 5 µM was > 80% and the activity at 10 µM was > 80%.
With `CCN(CC)c1c(C)c(C)cc2c1ncn2Cc1ccc(Cl)cc1` [Compound 73] the activity at 5 µM was < 80% and the activity at 10 µM was < 55%.
In the case of `Cc1ccccc1Cn1cnc2c(NS(C)(=O)=O)c(C)c(C)cc21` [Compound 74], the activity at 5 µM was > 80% and the activity at 10 µM was > 80%.
In the case of `Cc1cccc(Cn2cnc3c(NS(C)(=O)=O)c(C)c(C)cc32)c1` [Compound 75], the activity at 5 µM was > 80% and the activity at 10 µM was < 80%.
For `Cc1cc2c(nc(C)n2Cc2ccccc2)c(NS(C)(=O)=O)c1C` [Compound 76], the activity at 5 µM was > 80% and the activity at 10 µM was < 80%.
For `Cc1cccc(Cn2c(C)nc3c(NS(C)(=O)=O)c(C)c(C)cc32)c1` [Compound 77], the activity at 5 µM was > 80% and the activity at 10 µM was < 80%.
In the case of `Cc1cccc(Cn2cnc3c(NS(=O)(=O)C(F)(F)F)c(C)c(C)cc32)c1` [Compound 78], the activity at 5 µM was < 55% and the activity at 10 µM was < 20%.
With `Cc1cc2c(ncn2C)c(NS(C)(=O)=O)c1C` [Compound 79] the activity at 5 µM was < 80% and the activity at 10 µM was > 80%.
For `Cc1cccc(Cn2cnc3c(NS(=O)(=O)c4ccc(F)cc4)c(C)c(C)cc32)c1` [Compound 80], the activity at 5 µM was < 55% and the activity at 10 µM was < 80%.
In the case of `Cc1cc2c(ncn2Cc2ccc(Cl)cc2)c(CS(C)(=O)=O)c1C` [Compound 81], the activity at 5 µM was > 80% and the activity at 10 µM was < 80%.
For `Cc1cc2c(ncn2Cc2ccc(Cl)cc2)c(NS(=O)(=O)c2cccc(Cl)c2)c1C` [Compound 82], the activity at 5 µM was > 80% and the activity at 10 µM was > 80%.
For `Clc1ccc(Cn2cnc3ccncc32)cc1` [Compound 83], the activity at 5 µM was < 80% and the activity at 10 µM was < 80%.
In the case of `Clc1ccc(Cn2cnc3cnccc32)cc1` [Compound 84], the activity at 5 µM was < 80% and the activity at 10 µM was > 80%.
In the case of `Clc1ccc(Cn2cnc3cccnc32)cc1` [Compound 85], the activity at 5 µM was > 80% and the activity at 10 µM was < 80%.
In the case of `Clc1ccc(Cn2cnc3ncccc32)cc1` [Compound 86], the activity at 5 µM was > 80% and the activity at 10 µM was < 80%.
With `Cc1cc2nc(C(C)O)n(Cc3ccc(Cl)cc3)c2cc1C` (stereo not drawn) [Compound 87] the activity at 5 µM was < 55% and the activity at 10 µM was < 55%.
With `Cc1cc2nc(C(C)N3CCCC3)n(Cc3ccc(Cl)cc3)c2cc1C` (stereo not drawn) [Compound 88] the activity at 5 µM was < 55% and the activity at 10 µM was < 20%.
In the case of `Cc1cc2nc([C@H](C)N3CCC[C@H]3CO)n(Cc3ccc(Cl)cc3)c2cc1C` [Compound 89], the activity at 5 µM was < 55% and the activity at 10 µM was < 55%.
For `Cc1cc2nc([C@@H](C)C3CCC[C@H]3CO)n(Cc3ccc(Cl)cc3)c2cc1C` (stereo partly drawn) [Compound 90], the activity at 5 µM was < 80% and the activity at 10 µM was < 55%.
In the case of `Cc1cc2nc([C@H](C)N3CCC[C@@H]3CO)n(Cc3ccc(Cl)cc3)c2cc1C` [Compound 91], the activity at 5 µM was > 80% and the activity at 10 µM was > 80%.
For `Cc1cc2nc([C@@H](C)N3CCC[C@@H]3CO)n(Cc3ccc(Cl)cc3)c2cc1C` [Compound 92], the activity at 5 µM was < 55% and the activity at 10 µM was < 20%.
For `Fc1cc2ncn(Cc3ccc(Cl)cc3)c2cc1F` [Compound 94], the activity at 5 µM was < 80% and the activity at 10 µM was < 55%.
For `OC[C@H]1CCCN1Cc1nc2ccccc2n1Cc1ccc(Cl)cc1` [Compound 95], the activity at 5 µM was > 80% and the activity at 10 µM was < 80%.
`Cc1cc2nc(CC3CCCC3)n(Cc3ccc(Cl)cc3)c2cc1C` [Compound 96] was tested, and the activity at 5 µM was < 80% and the activity at 10 µM was < 55%.
With `Cc1cc2nc(CN3CCC[C@@H]3C)n(Cc3ccc(Cl)cc3)c2cc1C` [Compound 97] the activity at 5 µM was < 55% and the activity at 10 µM was < 20%.
`Cc1cc2nc(CN3CCC[C@H]3C)n(Cc3ccc(Cl)cc3)c2cc1C` [Compound 98] was tested, and the activity at 5 µM was < 55% and the activity at 10 µM was < 20%.
With `CCCS(=O)(=O)c1nc2ccccc2n1Cc1ccc(Cl)cc1` [Compound 99] the activity at 5 µM was < 20% and the activity at 10 µM was < 20%.
For `Clc1ccc(Cn2ccc3cc(Cl)cnc32)cc1` [Compound 100], the activity at 5 µM was > 80% and the activity at 10 µM was < 80%.
In the case of `COc1c(Cl)cnc2c1ccn2Cc1ccc(Cl)cc1` [Compound 101], the activity at 5 µM was > 80% and the activity at 10 µM was < 80%.
In the case of `Cc1c(Cl)cnc2c1ccn2Cc1ccc(Cl)cc1` [Compound 102], the activity at 5 µM was < 80% and the activity at 10 µM was < 80%.
`N#Cc1cnc2c(ccn2Cc2ccc(Cl)cc2)c1` [Compound 103] was tested, and the activity at 5 µM was > 80% and the activity at 10 µM was < 55%.
For `N#Cc1ccc2c(ccn2Cc2ccc(Cl)cc2)n1` [Compound 104], the activity at 5 µM was < 55% and the activity at 10 µM was < 55%.
With `N#Cc1cnc2ccn(Cc3ccc(Cl)cc3)c2c1` [Compound 105] the activity at 5 µM was > 80% and the activity at 10 µM was > 80%.
For `COc1ccc(Cn2c(C)nc3c(NS(=O)(=O)c4ccc(F)cc4)c(C)c(C)cc32)cc1` [Compound 107], the activity at 5 µM was < 80% and the activity at 10 µM was < 55%.
`CCCC(=O)NCc1nc2ccccc2n1Cc1ccccc1C` [Compound 109] was tested, and the activity at 5 µM was > 80% and the activity at 10 µM was > 80%.
With `CC(=O)NCc1nc2ccccc2n1Cc1ccc(Cl)cc1` [Compound 110] the activity at 5 µM was > 80% and the activity at 10 µM was > 80%.
With `O=C(Cc1ccccc1)NCCCc1nc2ccccc2n1Cc1ccc(Cl)cc1` [Compound 111] the activity at 5 µM was < 55% and the activity at 10 µM was < 20%.
For `CCc1nc2ccccc2n1Cc1ccc(Cl)cc1` [Compound 112], the activity at 5 µM was > 80% and the activity at 10 µM was < 80%.
With `CCC(=O)NCc1nc2ccccc2[nH]1` [Compound 113] the activity at 5 µM was > 80% and the activity at 10 µM was > 80%.
For `CCn1c(CNC=O)nc2ccccc21` [Compound 114], the activity at 5 µM was > 80% and the activity at 10 µM was > 80%.
`CC(C)(C)C(=O)NCc1nc2ccccc2[nH]1` [Compound 115] was tested, and the activity at 5 µM was < 80% and the activity at 10 µM was > 80%.
With `CCCCCc1nc2ccccc2n1Cc1ccc(Cl)cc1` [Compound 116] the activity at 5 µM was < 55% and the activity at 10 µM was < 20%.
In the case of `CCCCc1nc2ccccc2n1Cc1ccc(Cl)cc1` [Compound 117], the activity at 5 µM was < 20% and the activity at 10 µM was < 20%.
With `CC(C)Cc1nc2ccccc2n1Cc1ccc(Cl)cc1` [Compound 118] the activity at 5 µM was < 55% and the activity at 10 µM was < 55%.
`CC(C)c1nc2ccccc2n1Cc1ccc(Cl)cc1` [Compound 119] was tested, and the activity at 5 µM was < 80% and the activity at 10 µM was < 55%.
For `Clc1ccc(Cn2c(Cc3ccccc3)nc3ccccc32)cc1` [Compound 120], the activity at 5 µM was < 80% and the activity at 10 µM was < 55%.
With `CC(C)c1nc2ccccc2n1Cc1ccc(Cl)cc1Cl` [Compound 121] the activity at 5 µM was > 80% and the activity at 10 µM was < 20%.
In the case of `Clc1ccc(Cn2c(Cc3ccccc3)nc3ccccc32)c(Cl)c1` [Compound 122], the activity at 5 µM was < 55% and the activity at 10 µM was < 55%.
With `FC(F)(F)c1nc2ccccc2n1Cc1ccc(Cl)cc1` [Compound 123] the activity at 5 µM was > 80% and the activity at 10 µM was < 80%.
`FC(F)(F)c1nc2ccccc2n1Cc1ccc(Cl)c(Cl)c1` [Compound 124] was tested, and the activity at 5 µM was < 55% and the activity at 10 µM was < 55%.
In the case of `Cc1nc2cc(Cl)ccc2n1Cc1ccccc1` [Compound 125], the activity at 5 µM was < 80%.
In the case of `CC(=O)N(C)Cc1nc2ccccc2n1Cc1ccc(Cl)cc1Cl` [Compound 126], the activity at 5 µM was < 80% and the activity at 10 µM was < 55%.
In the case of `Clc1ccc(Cn2c(CN3CCOCC3)nc3ccccc32)cc1` [Compound 127], the activity at 5 µM was < 55% and the activity at 10 µM was < 55%.
With `Cc1cc2ncn(Cc3ccccc3)c2cc1C` [Compound 128] the activity at 5 µM was < 55% and the activity at 10 µM was < 55%.
For `Cc1cc2ncn(Cc3ccc(F)cc3)c2cc1C` [Compound 129], the activity at 5 µM was > 80% and the activity at 10 µM was > 80%.
With `Cc1cc2ncn(Cc3ccc(Cl)cc3Cl)c2cc1C` [Compound 130] the activity at 5 µM was < 55% and the activity at 10 µM was < 20%.
In the case of `Cc1cc2ncn(Cc3ccc(Cl)c(Cl)c3)c2cc1C` [Compound 131], the activity at 5 µM was < 80% and the activity at 10 µM was < 55%.
`NC1=NC2CCCCC2N1C(=O)c1ccc(Cl)cc1` (stereo not drawn) [Compound 132] was tested, and the activity at 5 µM was > 80% and the activity at 10 µM was > 80%.
In the case of `Nc1nc2ccccc2n1C(=O)c1ccc(Cl)cc1` [Compound 133], the activity at 5 µM was > 80% and the activity at 10 µM was < 55%.
In the case of `Brc1ccc(Cn2cnc3ccccc32)cc1` [Compound 134], the activity at 5 µM was < 55% and the activity at 10 µM was < 20%.
For `Cc1nc2ccccc2n1Cc1ccc(Br)cc1` [Compound 135], the activity at 5 µM was < 20% and the activity at 10 µM was < 20%.
For `OCc1nc2ccccc2n1Cc1ccc(Br)cc1` [Compound 136], the activity at 10 µM was < 55%.
`N#Cc1ccc(Cn2cnc3ccccc32)cc1` [Compound 137] was tested, and the activity at 5 µM was < 80% and the activity at 10 µM was < 80%.
In the case of `Cc1cc2ncn(Cc3ccc(C#N)cc3)c2cc1C` [Compound 138], the activity at 5 µM was < 80% and the activity at 10 µM was > 80%.
With `COC(=O)c1ccc(Cn2cnc3ccccc32)cc1` [Compound 139] the activity at 5 µM was < 80% and the activity at 10 µM was < 55%.
`COc1ccc(Cn2cnc3ccccc32)cc1OC` [Compound 140] was tested, and the activity at 5 µM was < 20% and the activity at 10 µM was < 55%.
With `CC(C)(C)c1ccc(Cn2cnc3ccccc32)cc1` [Compound 141] the activity at 5 µM was < 55% and the activity at 10 µM was < 20%.
For `Cc1ccc(Cn2cnc3ccccc32)cc1` [Compound 142], the activity at 10 µM was < 55%.
